# Reference: patent publication US12685735B2 (Foghorn Therapeutics Inc., priority 2020, dated 2026)
# Read-outs that look alike come from different tables or passages of the source.
# What was measured:
# BRG-1 = BRG-1 (Homo sapiens, UniProt P51532); experiment: ATPase catalytic activity assay of BRG-1 (ADP-Glo); format: biochemical; details: for IC50: read-out: BRG1 IC50 (μM)*
# Protocol: (§1) The ATPase catalytic activity of BRM or BRG-1 was measured by the in vitro biochemical assay using ADP-Glo™ (Promega, V9102). The ADP-Glo™ kinase assay is performed in two steps once the reaction is complete. The first step is to deplete any unconsumed ATP in the reaction. The second step is to convert the reaction product ADP to ATP, which will be utilized by the luciferase to generate luminesce and be detected by a luminescence reader, such as Envision.
# (§2) Then following addition of 5 μL of ADP-Glo™ Reagent provided in the kit, the reaction incubates at room temperature for 40 minutes. Then 10 μL of Kinase Detection Reagent provided in the kit is added to convert ADP to ATP, and the reaction incubates at room temperature for 60 minutes. Finally, luminescence measurement is collected with a plate-reading luminometer, such as Envision.
# as §1, with “The” for “The ATPase catalytic activity of BRM or BRG-1 was measured by the in vitro biochemical assay using ADP-Glo™ (Promega, V9102). The”
# BRM = BRM (Homo sapiens, UniProt P51531); experiment: ATPase catalytic activity assay of BRM (ADP-Glo); format: biochemical; details: for IC50: read-out: BRM IC50 (μM)*
# Protocol: as §1, §2
# as §1, with “The” for “The ATPase catalytic activity of BRM or BRG-1 was measured by the in vitro biochemical assay using ADP-Glo™ (Promega, V9102). The”
# [1] = ATPase catalytic activity, ADP-Glo
# [2] = ATPase catalytic activity, ADP-Glo, read-out: BRG1 Max % Inhibition
# [3] = ATPase catalytic activity, ADP-Glo, 30 nM BRG-1, 400 μM ATP
# [4] = ATPase catalytic activity, ADP-Glo, 30 nM BRG-1, 400 μM ATP, read-out: BRG1 Max % Inhibition
# BRG-1, sequence (P51532 whole entry): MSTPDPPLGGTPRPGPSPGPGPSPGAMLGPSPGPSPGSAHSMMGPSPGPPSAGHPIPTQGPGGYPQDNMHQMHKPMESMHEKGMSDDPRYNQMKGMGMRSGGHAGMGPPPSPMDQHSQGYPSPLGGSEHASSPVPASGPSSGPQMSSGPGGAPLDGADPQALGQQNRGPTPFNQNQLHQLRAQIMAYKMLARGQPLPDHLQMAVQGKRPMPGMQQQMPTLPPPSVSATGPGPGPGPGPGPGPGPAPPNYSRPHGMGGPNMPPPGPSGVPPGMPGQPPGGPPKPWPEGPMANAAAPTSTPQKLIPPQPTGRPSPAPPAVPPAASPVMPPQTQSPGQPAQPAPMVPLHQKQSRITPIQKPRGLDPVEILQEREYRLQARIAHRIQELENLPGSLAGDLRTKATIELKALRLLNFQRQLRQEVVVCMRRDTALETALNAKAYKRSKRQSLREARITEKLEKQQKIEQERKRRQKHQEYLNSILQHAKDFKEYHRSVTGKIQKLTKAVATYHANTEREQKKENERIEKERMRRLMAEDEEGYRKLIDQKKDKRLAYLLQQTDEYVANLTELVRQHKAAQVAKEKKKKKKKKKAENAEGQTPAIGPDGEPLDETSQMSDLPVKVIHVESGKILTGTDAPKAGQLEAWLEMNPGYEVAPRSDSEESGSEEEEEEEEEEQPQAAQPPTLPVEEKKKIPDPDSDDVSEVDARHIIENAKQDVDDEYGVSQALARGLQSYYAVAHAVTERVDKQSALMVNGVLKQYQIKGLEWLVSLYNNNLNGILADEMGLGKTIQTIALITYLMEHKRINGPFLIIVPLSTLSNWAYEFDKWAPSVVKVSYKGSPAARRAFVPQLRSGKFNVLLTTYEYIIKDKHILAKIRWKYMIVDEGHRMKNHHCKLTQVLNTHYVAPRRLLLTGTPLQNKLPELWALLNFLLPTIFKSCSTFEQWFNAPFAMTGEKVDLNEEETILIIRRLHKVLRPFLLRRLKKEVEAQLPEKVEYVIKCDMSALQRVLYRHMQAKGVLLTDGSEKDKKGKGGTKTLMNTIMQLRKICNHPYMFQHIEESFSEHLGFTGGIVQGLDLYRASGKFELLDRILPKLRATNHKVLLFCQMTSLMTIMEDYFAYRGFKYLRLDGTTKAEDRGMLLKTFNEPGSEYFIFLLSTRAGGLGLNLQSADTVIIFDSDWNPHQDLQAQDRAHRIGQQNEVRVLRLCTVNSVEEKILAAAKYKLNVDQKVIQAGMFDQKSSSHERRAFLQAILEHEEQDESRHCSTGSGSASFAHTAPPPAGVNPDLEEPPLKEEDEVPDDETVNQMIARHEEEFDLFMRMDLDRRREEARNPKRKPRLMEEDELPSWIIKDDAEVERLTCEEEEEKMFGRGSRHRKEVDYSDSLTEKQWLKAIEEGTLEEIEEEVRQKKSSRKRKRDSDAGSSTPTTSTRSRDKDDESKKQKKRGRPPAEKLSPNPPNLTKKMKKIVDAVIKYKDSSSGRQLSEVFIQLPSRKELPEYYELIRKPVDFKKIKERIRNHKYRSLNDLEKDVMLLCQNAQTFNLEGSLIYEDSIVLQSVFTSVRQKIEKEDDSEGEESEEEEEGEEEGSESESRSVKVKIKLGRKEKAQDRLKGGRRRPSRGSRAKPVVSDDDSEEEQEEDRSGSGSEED
# BRM, sequence (P51531 whole entry): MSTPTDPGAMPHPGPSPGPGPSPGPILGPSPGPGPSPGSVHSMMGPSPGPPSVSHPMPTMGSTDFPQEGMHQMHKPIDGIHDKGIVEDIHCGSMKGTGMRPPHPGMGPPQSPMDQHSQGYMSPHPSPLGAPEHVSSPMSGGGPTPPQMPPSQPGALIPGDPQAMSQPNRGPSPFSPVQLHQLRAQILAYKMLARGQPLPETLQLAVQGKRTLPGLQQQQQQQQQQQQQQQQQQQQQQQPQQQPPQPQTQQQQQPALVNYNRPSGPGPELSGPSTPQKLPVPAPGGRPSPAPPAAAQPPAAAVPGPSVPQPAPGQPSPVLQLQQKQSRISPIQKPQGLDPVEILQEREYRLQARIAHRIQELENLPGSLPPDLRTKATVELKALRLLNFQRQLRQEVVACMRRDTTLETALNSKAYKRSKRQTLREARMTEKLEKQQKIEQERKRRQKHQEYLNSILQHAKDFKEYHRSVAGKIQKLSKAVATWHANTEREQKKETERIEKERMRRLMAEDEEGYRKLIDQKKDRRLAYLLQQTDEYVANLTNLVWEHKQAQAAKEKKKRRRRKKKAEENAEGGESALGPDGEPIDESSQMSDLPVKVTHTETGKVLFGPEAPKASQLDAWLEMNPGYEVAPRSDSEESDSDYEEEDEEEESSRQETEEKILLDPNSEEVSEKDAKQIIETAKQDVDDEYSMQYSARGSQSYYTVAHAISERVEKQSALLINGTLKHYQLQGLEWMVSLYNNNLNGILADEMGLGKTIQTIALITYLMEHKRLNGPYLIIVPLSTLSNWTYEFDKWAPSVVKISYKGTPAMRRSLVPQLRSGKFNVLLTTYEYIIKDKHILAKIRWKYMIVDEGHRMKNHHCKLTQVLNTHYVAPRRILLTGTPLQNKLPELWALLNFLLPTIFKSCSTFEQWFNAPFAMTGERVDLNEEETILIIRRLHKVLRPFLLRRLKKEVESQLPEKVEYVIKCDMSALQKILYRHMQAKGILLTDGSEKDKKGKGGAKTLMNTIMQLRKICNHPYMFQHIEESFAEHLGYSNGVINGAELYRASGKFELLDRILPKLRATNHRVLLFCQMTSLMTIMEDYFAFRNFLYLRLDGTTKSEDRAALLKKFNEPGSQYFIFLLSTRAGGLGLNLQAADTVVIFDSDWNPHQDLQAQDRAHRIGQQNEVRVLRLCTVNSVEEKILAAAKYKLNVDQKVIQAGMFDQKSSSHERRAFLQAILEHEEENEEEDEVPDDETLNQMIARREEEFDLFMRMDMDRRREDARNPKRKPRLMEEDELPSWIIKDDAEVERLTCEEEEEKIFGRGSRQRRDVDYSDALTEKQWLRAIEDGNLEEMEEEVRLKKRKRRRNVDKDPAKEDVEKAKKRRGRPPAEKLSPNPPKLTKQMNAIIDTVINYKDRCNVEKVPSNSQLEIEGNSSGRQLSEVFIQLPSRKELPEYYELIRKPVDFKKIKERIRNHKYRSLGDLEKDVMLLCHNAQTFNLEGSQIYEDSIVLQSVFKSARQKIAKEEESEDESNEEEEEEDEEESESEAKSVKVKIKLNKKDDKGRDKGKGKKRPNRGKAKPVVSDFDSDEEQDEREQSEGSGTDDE
Structure (SMILES),IC50 (BRG-1; [1]),Emax (BRG-1; [2]),BRM Max % Inhibition (BRM),IC50 (BRM),IC50 (BRG-1; [3]),Emax (BRG-1; [4]),"BRM Max % Inhibition (BRM; 30 nM BRM, 400 μM ATP)","IC50 (BRM; 30 nM BRM, 400 μM ATP)","Emax (BRG-1; read-out: BRG1 Max % Inhibition, ATPase catalytic activity, ADP-Glo)"
"CN1C(=O)CCc2ccc(-c3csc(NC(=O)CNC(=O)c4ccc5c(c4)[C@](C)(CO)CC5)n3)cc21 [Compound 180, (R)-3-(hydroxymethyl)-3-methyl-N-(2-((4-(1-methyl-2-oxo-1,2,3,4-tetrahydroquinolin-7-yl)thiazol-2-yl)amino)-2-oxoethyl)-2,3-dihydro-1H-indene-5-carboxamide]",1 to 5 µM,> 60%,>90%,0.1 to 1 µM,–,–,–,–,–
"C[C@@H]1CN(c2cccc(-c3csc(NC(=O)CNC(=O)c4ccc5c(c4)C(C#N)(CO)CCO5)n3)c2)C[C@H](C)O1 (stereo partly drawn) [Compound 444, 4-cyano-N-(2-((4-(3-((cis)-2,6-dimethylmorpholino)phenyl)thiazol-2-yl)amino)-2-oxoethyl)-4-(hydroxymethyl)chromane-6-carboxamide]",–,–,–,–,0.1 to 1 µM,> 95%,>95%,< 0.1 µM,–
"C[C@@H]1CN(c2cccc(-c3csc(NC(=O)CNC(=O)c4ccc5c(c4)[C@]4(CCC[C@@H]4O)CC5)n3)c2)C[C@H](C)O1 [Compound 189, (1S,2S)-N-(2-((4-(3-((cis)-2,6-dimethylmorpholino)phenyl)thiazol-2-yl)amino)-2-oxoethyl)-2-hydroxy-2′,3′-dihydrospiro[cyclopentane-1,1′-indene]-6′-carboxamide]",1 to 5 µM,> 50%,>90%,0.1 to 1 µM,–,–,–,–,–
"C[C@H](CO)S(=O)(=O)c1cccc(C(=O)NCC(=O)Nc2nc(-c3cccc(-c4ccncc4)c3)cs2)c1 [Compound 116, (R)-3-((1-hydroxypropan-2-yl)sulfonyl)-N-(2-oxo-2-((4-(3-(pyridin-4-yl)phenyl)thiazol-2-yl)amino)ethyl)benzamide]",1 to 5 µM,> 40%,>80%,0.1 to 1 µM,–,–,–,–,–
"Cc1cc(-c2cccc(-c3csc(NC(=O)CNC(=O)c4cccc(C(C)(C)CO)c4)n3)n2)ncn1 [Compound 230, 3-(2-hydroxy-1,1-dimethyl-ethyl)-N-[2-[[4-[6-(6-methylpyrimidin-4-yl)-2-pyridyl]thiazol-2-yl]amino]-2-oxo-ethyl]benzamide]",0.1 to 1 µM,> 80%,>95%,< 0.1 µM,–,–,–,–,–
Cn1cc(-c2cccc(-c3csc(NC(=O)CNC(=O)c4cccc(C(C)(C)CO)c4)n3)c2)cn1 [Compound 104],1 to 5 µM,> 70%,>90%,0.1 to 1 µM,–,–,–,–,–
C[C@@H](N)C(C)(C)c1cccc(C(=O)NCC(=O)Nc2nc(-c3cccc(-c4ccncc4)c3)cs2)c1 [Compound 109],1 to 5 µM,> 50%,>80%,1 to 5 µM,–,–,–,–,–
"C[C@@H]1CN(c2cccc(-c3csc(NC(=O)CNC(=O)c4ccc5c(c4)[C@H](C)COC5)n3)n2)C[C@H](C)O1 [Compound 321, (S)-N-(2-((4-(6-((cis)-2,6-dimethylmorpholino)pyridin-2-yl)thiazol-2-yl)amino)-2-oxoethyl)-4-methylisochromane-6-carboxamide]",0.1 to 1 µM,> 90%,>90%,< 0.1 µM,–,–,–,–,–
"C[C@@H]1CN(c2cccc(-c3csc(NC(=O)CNC(=O)c4cccc(C5(C)COC5)c4)n3)n2)C[C@H](C)O1 [Compound 187, N-[2-[[4-[6-[(cis)-2,6-dimethylmorpholin-4-yl]-2-pyridyl]thiazol-2-yl]amino]-2-oxo-ethyl]-3-(3-methyloxetan-3-yl)benzamide]",0.1 to 1 µM,> 70%,>95%,< 0.1 µM,–,–,–,–,–
"C[C@@H]1CN(c2cccc(-c3csc(NC(=O)CNC(=O)c4ccc5c(c4)[C@@H]([C@@H](C)O)CC5)n3)n2)C[C@H](C)O1 [Compound 142, (3S)-N-[2-[[4-[6-[(cis)-2,6-dimethylmorpholin-4-yl]-2-pyridyl]thiazol-2-yl]amino]-2-oxo-ethyl]-3-[(1R)-1-hydroxyethyl]indane-5-carboxamide]",0.1 to 1 µM,> 80%,>95%,< 0.1 µM,–,–,–,–,–
"C[C@@]1(F)COCc2ccc(C(=O)NCC(=O)Nc3nc(-c4cccc(C#N)c4)cs3)cc21 [Compound 315, (S)-N-(2-((4-(3-cyanophenyl)thiazol-2-yl)amino)-2-oxoethyl)-4-fluoro-4-methylisochromane-6-carboxamide]",0.1 to 1 µM,> 95%,>95%,< 0.1 µM,–,–,–,–,–
"CSCC[C@H](NC(=O)c1cccc(C(C)(C)CN)c1)C(=O)Nc1nc(-c2cccc(-c3ccncc3)c2)cs1 [Compound 48, (S)-3-(1-amino-2-methylpropan-2-yl)-N-(4-(methylthio)-1-oxo-1-((4-(3-(pyridin-4-yl)phenyl)thiazol-2-yl)amino)butan-2-yl)benzamide]",0.1 to 1 µM,> 80%,>95%,0.1 to 1 µM,–,–,–,–,–
"COc1cccc(-c2csc(NC(=O)CNC(=O)c3ccc4c(c3)[C@@](C)(F)CCOC4)n2)c1 [Compound 278, (S)-5-fluoro-N-(2-((4-(3-methoxyphenyl)thiazol-2-yl)amino)-2-oxoethyl)-5-methyl-1,3,4,5-tetrahydrobenzo[c]oxepine-7-carboxamide]",> 5 µM,–,>90%,0.1 to 1 µM,–,–,–,–,> 90%
"Cc1nccc(-c2cccc(-c3csc(NC(=O)CNC(=O)c4ccc5c(c4)[C@](C)(C#N)CC5)n3)n2)n1 [Compound 249, (3R)-3-cyano-3-methyl-N-[2-[[4-[6-(2-methylpyrimidin-4-yl)-2-pyridyl]thiazol-2-yl]amino]-2-oxo-ethyl]indane-5-carboxamide]",< 0.1 µM,> 95%,>95%,< 0.1 µM,–,–,–,–,–
"COc1cccc(-c2csc(NC(=O)CNC(=O)c3cc(OC)c4c(c3)[C@](C)(C#N)COC4)n2)c1 [Compound 335, (R)-4-cyano-8-methoxy-N-(2-((4-(3-methoxyphenyl)thiazol-2-yl)amino)-2-oxoethyl)-4-methylisochromane-6-carboxamide]",> 5 µM,> 90%,>90%,0.1 to 1 µM,–,–,–,–,–
C[C@@H]1CN(c2cccc(-c3csc(NC(=O)CNC(=O)c4cccc(C(C)(C)CN)c4)n3)c2)C[C@H](C)O1 [Compound 99],0.1 to 1 µM,> 90%,>95%,< 0.1 µM,–,–,–,–,–
CC(C(F)(F)F)S(=O)(=O)c1cccc(C(=O)NCC(=O)Nc2nc(-c3cccc(-c4ccncc4)c3)cs2)c1 (stereo not shown) [Compound 112],0.1 to 1 µM,> 50%,>80%,0.1 to 1 µM,–,–,–,–,–
"C[C@@H]1CN(c2cccc(-c3csc(NC(=O)CNC(=O)c4ccc5c(c4)C(F)(F)COC5)n3)n2)C[C@H](C)O1 [Compound 385, N-(2-((4-(6-((cis)-2,6-dimethylmorpholino)pyridin-2-yl)thiazol-2-yl)amino)-2-oxoethyl)-4,4-difluoroisochromane-6-carboxamide]",0.1 to 1 µM,> 95%,>95%,< 0.1 µM,–,–,–,–,–
"C[C@@H]1CN(c2cccc(-c3csc(NC(=O)CNC(=O)c4ccc5c(c4)[C@@H]([C@H](C)O)CC5)n3)n2)C[C@H](C)O1 [Compound 140, (3S)-N-[2-[[4-[6-[(cis)-2,6-dimethylmorpholin-4-yl]-2-pyridyl]thiazol-2-yl]amino]-2-oxo-ethyl]-3-[(1S)-1-hydroxyethyl]indane-5-carboxamide]",> 5 µM,> 50%,>95%,0.1 to 1 µM,–,–,–,–,–
"CC(C)(CN)c1cccc(C(=O)NCC(=O)Nc2nc(-c3cccc(-c4cc(CO)cc(C(F)(F)F)c4)c3)cs2)c1 [Compound 53, 3-(1-amino-2-methylpropan-2-yl)-N-(2-((4-(3′-(hydroxymethyl)-5′-(trifluoromethyl)-[1,1′-biphenyl]-3-yl)thiazol-2-yl)amino)-2-oxoethyl)benzamide]",1 to 5 µM,> 70%,>90%,0.1 to 1 µM,–,–,–,–,–
"CC1(C#N)CCOc2ccc(C(=O)NCC(=O)Nc3nc(-c4cccc(C5(F)COC5)c4)cs3)cc21 (stereo in doubt) [Compound 422, (S)-4-cyano-N-(2-((4-(3-(3-fluorooxetan-3-yl)phenyl)thiazol-2-yl)amino)-2-oxoethyl)-4-methylchromane-6-carboxamide]",–,–,–,–,1 to 5 µM,> 95%,>95%,0.1 to 1 µM,–
"COc1cccc(-c2csc(NC(=O)CNC(=O)c3ccc4c(c3)C(C)(F)CCCO4)n2)c1 (stereo in doubt) [Compound 324, (S)-5-fluoro-N-(2-((4-(3-methoxyphenyl)thiazol-2-yl)amino)-2-oxoethyl)-5-methyl-2,3,4,5-tetrahydrobenzo[b]oxepine-7-carboxamide]",0.1 to 1 µM,> 90%,>90%,0.1 to 1 µM,–,–,–,–,–
